Assay [1] is described as follows: In vitro NO release test (incubation with L-cysteine, OD at 550 nm). The conditions noted are these: 100 μM solution with cysteine solution, 37° C. As for the experimental part: • (1) Sodium nitrite solutions with different concentrations were prepared. A calibration curve was drawn. • (2) The sample was treated. A 100 μM solution was prepared. 2.5 mL of the prepared compound solution and 2.5 mL of the cysteine solution were taken and incubated at 37° C. for 120 min, and the resulting mixture was sampled at different time points. • (3) A blank hole and a standard hole were set. 160 μL of the sample was collected and mixed evenly with 0.08 mL of a developer and stood at 37° C. for 15 min. At λ=550 nm, the OD value of absorbance was measured by the enzyme marker. The NO release levels were obtained by substituting the value into the standard curve.

For assay [2], the system named is SW620. As to the kind of experiment: In vitro anti-tumor activity evaluation test (CCK-8), SW620. Conditions: Homo sapiens, SW-620, SW620, 72 h; for inhibition at 1 µM: read-out: Inhibitory rates against tumor cell lines; for IC50: read-out: IC50 against different tumor cell lines. Format: cell-based, human. As for the experimental part: (§1) • (1) Cells were digested and counted. Cell suspensions (H520, SW620 5.0×10^4 cells/mL, and U87MG 3.5×10^4 cells/mL) were prepared. 100 μL of cell suspension was added to each well of a 96-well cell culture plate. • (2) The 96-well cell culture plate was incubated in a 37° C., 5%, CO2 incubator for 24 h. • (3) A drug was diluted with a culture medium to a desired working solution concentration. 100 μL of the corresponding drug-containing culture medium was added to each well. At the same time, a negative control group and a positive control group were set up. • (4) The 96-well cell culture plate was incubated in a 37° C., 5%, CO2 incubator for 72 h. • (5) The 96-well plate was stained with CCK-8, and at λ=450 nm, the OD value was determined. • 1) 10 μL of CCK-8 was added to each well. The culture plate continued to be incubated in the incubator for 2-3 h. • 2) The culture plate was rocked for 10 min to gently mix and remove air bubbles from the 96-well plate. • 3) At λ=450 nm, the OD value of each well was read by the enzyme marker, and the inhibitory rates were calculated. • (6) According to the following equation (1), the growth inhibitory rate of the tumor cells was obtained. The obtained results were substituted into an IC 50 calculation software SPSS17.0 to find out the IC50 value.

Assay [3] concerns NCI-H520. As to the kind of experiment: In vitro anti-tumor activity evaluation test (CCK-8), NCI-H520. Format: cell-based, human. The conditions noted are these: Homo sapiens, NCI-H520, 72 h; for inhibition at 1 µM: read-out: Inhibitory rates against tumor cell lines; for IC50: read-out: IC50 against different tumor cell lines. As for the experimental part:
as §1

Assay [4] concerns U87MG. As to the kind of experiment: In vitro anti-tumor activity evaluation test (CCK-8), U87MG. Format: cell-based, human. Conditions: Homo sapiens, U-87 MG, U87MG, 72 h; for inhibition at 1 µM: read-out: Inhibitory rates against tumor cell lines; for IC50: read-out: IC50 against different tumor cell lines. As for the experimental part: as §1

SMILES strings stand for the structures.

The IC50 is the point on the concentration scale where inhibition reaches its midpoint.

Turning to `C=C[C@]1(C)CC[C@@H](C(=C)CN2CCC(COC(=O)CCCC(=O)OCCOc3no[n+]([O-])c3S(=O)(=O)c3ccccc3)CC2)C[C@H]1C(=C)CCl` [Example 14, 4-(2-((5-((1-(2-((1R,3R,4S)-3-(3-chloroprop-1-en-2-yl)-4-methyl-4-vinylcyclohexyl)allyl)piperidin-4-yl)methoxyl)-5-oxopentanoyl)oxy)ethyoxyl)-3-(phenylsulfonyl)-1,2,5-oxadiazole 2-oxide], the NO-release concentrations in assay [1] (5 min) came out at 12.34 µM; in assay [1] (10 min) it was 13.53 µM; in assay [1] (20 min), 15.94 µM; in assay [1] (30 min) it was 18.96 µM; in assay [1] (60 min), 29.94 µM; in assay [1] (90 min), 45.42 µM. For the same compound, the NO-release concentrations in assay [1] (120 min) was determined as 62.49 µM. Moreover, the inhibition at 1 µM came to 55.4 ± 1.5% in assay [2], 50.1 ± 1.1% in assay [3] and 54.8 ± 1.9% in assay [4]. Moreover, the IC50 in assay [2] was 814 ± 68 nM; in assay [3], 846 ± 27 nM; in assay [4], 477 ± 11 nM.
In the case of `C=C[C@]1(C)CC[C@@H](C(=C)CN2CC[C@H](OC(=O)CCC(=O)OCC#CCOc3no[n+]([O-])c3S(=O)(=O)c3ccccc3)C2)C[C@H]1C(=C)CCl` [Example 11, 4-((4-((4-(((S)-1-(2-((1R,3R,4S)-3-(3-chloroprop-1-en-2-yl)-4-methyl-4-vinylcyclohexyl)allyl)pyrrolidine-3-ly)oxy)-4-oxobutanoyl)oxy)but-2-yn-1-yl)oxy)-3-(phenylsulfonyl)-1,2,5-oxadiazole 2-oxide], the NO-release concentrations in assay [1] (5 min) was found to be 9.49 µM; in assay [1] (10 min), 10.79 µM; in assay [1] (20 min) it was 14.43 µM; in assay [1] (30 min) it was 15.99 µM; in assay [1] (60 min), 24.58 µM; in assay [1] (90 min) it was 37.37 µM. The compound further gave an NO-release concentrations in assay [1] (120 min) of 50.99 µM. In addition, the results for the inhibition at 1 µM in assay [2], in assay [3] and in assay [4] were 30.5 ± 3.3%, 46 ± 1% and 42 ± 6.5%, respectively. The IC50 in assay [3] was 1020 ± 41 nM.
Consider `C=C[C@]1(C)CC[C@@H](C(=C)CN2CCN(CCOC(=O)CCCC(=O)OCC#CCOc3no[n+]([O-])c3S(=O)(=O)c3ccccc3)CC2)C[C@H]1C(=C)CCl` [Example 24, 4-((4-((5-(2-(4-(2-((1R,3R,4S)-3-(3-chloroprop-1-en-2-yl)-4-methyl-4-vinylcyclohexyl)allyl)piperazin-1-yl)ethyoxyl)-5-oxyglutaryl)oxy)but-2-yn-1-yl)oxy)-3-(phenylsulfonyl)-1,2,5-oxadiazole 2-oxide], for which the NO-release concentrations in assay [1] (5 min) amounted to 10.64 µM; in assay [1] (10 min), 11.37 µM; in assay [1] (20 min), 12.38 µM; in assay [1] (30 min) it was 13.68 µM; in assay [1] (60 min), 18.24 µM; in assay [1] (90 min), 25.90 µM. The compound also gave an NO-release concentrations in assay [1] (120 min) of 34.64 µM. Besides, the inhibition at 1 µM in assay [2] worked out at 43.2 ± 5.5%; in assay [3], 46.8 ± 2.1%; in assay [4], 50.3 ± 1.2%. The IC50 in assay [3] came out at 1062 ± 2 nM; in assay [4] it was 960 ± 75 nM.
Take `C=C[C@]1(C)CC[C@@H](C(=C)CN(C)CCOC(=O)CCC(=O)OCC#CCOc2no[n+]([O-])c2S(=O)(=O)c2ccccc2)C[C@H]1C(=C)CCl` [Example 3, 4-((4-((4-(2-((2-((1R,3R,4S)-3-(3-chloroprop-1-en-2-yl)-4-methyl-4-vinylcyclohexyl)allyl)(methyl)amino)ethyoxyl)-4-oxobutanoyl)oxy)but-2-yn-1-yl)oxy)-3-(phenylsulfonyl)-1,2,5-oxadiazole 2-oxide]: the NO-release concentrations in assay [1] (5 min) amounted to 10.78 µM; in assay [1] (10 min) it was 12.02 µM; in assay [1] (20 min), 15.83 µM; in assay [1] (30 min), 19.79 µM; in assay [1] (60 min) it was 32.99 µM; in assay [1] (90 min), 48.39 µM. In assay [1] (120 min), this compound displayed an NO-release concentrations of 58.84 µM. Besides, the values for the inhibition at 1 µM in assay [2], in assay [3] and in assay [4] were 30.1 ± 5.2%, 35 ± 2.2% and 34.9 ± 0.6%, respectively.
As for `C=C[C@]1(C)CC[C@@H](C(=C)CN2CC[C@H](OC(=O)CCCC(=O)OCCOc3no[n+]([O-])c3S(=O)(=O)c3ccccc3)C2)C[C@H]1C(=C)CCl` [Example 10], the NO-release concentrations in assay [1] (5 min) worked out at 8.39 µM; in assay [1] (10 min), 9.44 µM; in assay [1] (20 min), 10.65 µM; in assay [1] (30 min) it was 12.22 µM; in assay [1] (60 min), 18.15 µM; in assay [1] (90 min), 26.49 µM. Also, the NO-release concentrations in assay [1] (120 min) was found to be 34.97 µM. The inhibition at 1 µM worked out at 45.9 ± 3.9% in assay [2], 46.7 ± 2% in assay [3] and 53.1 ± 1.4% in assay [4]. For the same compound, the figures for the IC50 in assay [2], in assay [3] and in assay [4] were 1020 ± 90 nM, 848 ± 53 nM and 343 ± 29 nM, respectively.
As to `C=C[C@]1(C)CC[C@@H](C(=C)CN2CCC(COC(=O)CCCC(=O)OCC#CCOc3no[n+]([O-])c3S(=O)(=O)c3ccccc3)CC2)C[C@H]1C(=C)CCl` [Example 16, 4-((4-((5-((1-(2-((1R,3R,4S)-3-(3-chloroprop-1-en-2-yl)-4-methyl-4-vinylcyclohexyl)allyl)piperidin-4-yl)methoxyl)-5-oxopentanoyl)oxy)but-2-yn-1-yl)oxy)-3-(phenylsulfonyl)-1,2,5-oxadiazole 2-oxide], the NO-release concentrations in assay [1] (5 min) amounted to 16.99 µM; in assay [1] (10 min), 18.93 µM; in assay [1] (20 min), 22.62 µM; in assay [1] (30 min), 27.04 µM; in assay [1] (60 min), 42.47 µM; in assay [1] (90 min), 64.24 µM. In addition, the NO-release concentrations in assay [1] (120 min) turned out to be 86.29 µM. Further, the inhibition at 1 µM in assay [2] came to 39.8 ± 1.9%; in assay [3] it was 52.3 ± 1.1%; in assay [4] it was 52.2 ± 3.4%. Also, the IC50 in assay [3] was 1050 ± 13 nM; in assay [4], 2160 ± 548 nM.

Values taken from patent US12624012B2, “14-chloro-β-elemene nitric oxide donor derivative and preparation method and use thereof” (HANGZHOU NORMAL UNIVERSITY, priority 2021, dated 2026).
